Results published in ChEMBL document CHEMBL1201862, “PubChem BioAssay data set” (2004).
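Growth conditions: 96-well plates. Treatment: test compound, 48 hours, 5 concentrations. Analysis: linear interpolation between bracketing concentrations; unreached endpoints set to highest concentration. GI50 is the concentration that inhibits growth by half.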 Active and inactive are the calls of the source. No stated cut-off is given here; in the data, active = GI50 up to about 1.1 µM and inactive = higher.

What was measured:
Assay in all cases: NCI-60 cell line screen, 48 h
786-0 = tested on: 786-0
A498 = tested on: A498
A549 = tested on: A549
ACHN = tested on: ACHN
CAKI-1 = tested on: CAKI-1
CCRF-CEM = tested on: CCRF-CEM
COLO 205 = tested on: COLO 205
DU-145 = tested on: DU-145
EKVX = tested on: EKVX
HCC 2998 = tested on: HCC 2998
HCT-116 = tested on: HCT-116
HCT-15 = tested on: HCT-15
HL-60 = tested on: HL-60
HOP-62 = tested on: HOP-62
HOP-92 = tested on: HOP-92
HT-29 = tested on: HT-29
Hs-578T = tested on: Hs-578T
IGROV-1 = tested on: IGROV-1
K562 = tested on: K562
KM12 = tested on: KM12
LOX IMVI = tested on: LOX IMVI
M14 = tested on: M14
MCF7 = tested on: MCF7
MDA-MB-231 = tested on: MDA-MB-231
MDA-MB-435 = tested on: MDA-MB-435
MDA-N = tested on: MDA-N
MOLT-4 = tested on: MOLT-4
Malme-3M = tested on: Malme-3M
NCI-H226 = tested on: NCI-H226
NCI-H23 = tested on: NCI-H23
NCI-H460 = tested on: NCI-H460
NCI-H522 = tested on: NCI-H522
NCI/ADR-RES = tested on: NCI/ADR-RES
OVCAR-3 = tested on: OVCAR-3
OVCAR-4 = tested on: OVCAR-4
OVCAR-5 = tested on: OVCAR-5
OVCAR-8 = tested on: OVCAR-8
PC-3 = tested on: PC-3
RPMI-8226 = tested on: RPMI-8226
RXF 393 = tested on: RXF 393
SF-268 = tested on: SF-268
SF-295 = tested on: SF-295
SF-539 = tested on: SF-539
SK-MEL-28 = tested on: SK-MEL-28
SK-MEL-2 = tested on: SK-MEL-2
SK-MEL-5 = tested on: SK-MEL-5
SK-OV-3 = tested on: SK-OV-3
SN12C = tested on: SN12C
SNB-19 = tested on: SNB-19
SNB-75 = tested on: SNB-75
SR = tested on: SR
SW-620 = tested on: SW-620
T47D = tested on: T47D
TK-10 = tested on: TK-10
U-251 = tested on: U-251
UACC-257 = tested on: UACC-257
UACC-62 = tested on: UACC-62
UO-31 = tested on: UO-31

## CCCCNC(=O)OCCN=C1c2ccccc2C(Br)C(Br)c2ccccc21 (stereo not drawn)
786-0
  GI50: 14.6 µM (inactive)
A498
  GI50: 41.5 µM (inactive)
A549
  GI50: 83.9 µM (inactive)
ACHN
  GI50: 24.2 µM (inactive)
CAKI-1
  GI50: 25.6 µM (inactive)
CCRF-CEM
  GI50: 10.1 µM (inactive)
COLO 205
  GI50: 20.2 µM (inactive)
DU-145
  GI50: 41.3 µM (inactive)
EKVX
  GI50: 20.3 µM (inactive)
HCC 2998
  GI50: > 100 µM (inactive)
HCT-116
  GI50: 23.3 µM (inactive)
HCT-15
  GI50: 16 µM
HL-60
  GI50: 9.04 µM (inactive)
HOP-62
  GI50: 25.9 µM (inactive)
HOP-92
  GI50: 4.46 µM (inactive)
HT-29
  GI50: 12.5 µM (inactive)
Hs-578T
  GI50: 36.1 µM (inactive)
IGROV-1
  GI50: 49.8 µM (inactive)
K562
  GI50: 29.9 µM (inactive)
KM12
  GI50: 45.6 µM (inactive)
LOX IMVI
  GI50: 20 µM (inactive)
M14
  GI50: 19.4 µM (inactive)
MCF7
  GI50: 58.2 µM (inactive)
MDA-MB-231
  GI50: 29.4 µM (inactive)
MDA-MB-435
  GI50: 21 µM (inactive)
MDA-N
  GI50: 15.2 µM (inactive)
MOLT-4
  GI50: 24.9 µM (inactive)
Malme-3M
  GI50: 23.3 µM (inactive)
NCI-H226
  GI50: 76.9 µM (inactive)
NCI-H23
  GI50: 26.3 µM (inactive)
NCI-H460
  GI50: 54.6 µM (inactive)
NCI-H522
  GI50: 22.2 µM (inactive)
NCI/ADR-RES
  GI50: 19.9 µM (inactive)
OVCAR-3
  GI50: 19.9 µM (inactive)
OVCAR-4
  GI50: 23.8 µM (inactive)
OVCAR-5
  GI50: > 100 µM (inactive)
OVCAR-8
  GI50: 27.6 µM (inactive)
PC-3
  GI50: 36.9 µM (inactive)
RPMI-8226
  GI50: 22.5 µM (inactive)
RXF 393
  GI50: 14.3 µM (inactive)
SF-268
  GI50: 32.3 µM (inactive)
SF-295
  GI50: 87.7 µM (inactive)
SF-539
  GI50: 29.9 µM (inactive)
SK-MEL-28
  GI50: 35.4 µM (inactive)
SK-MEL-2
  GI50: 42.9 µM (inactive)
SK-MEL-5
  GI50: 18.7 µM (inactive)
SK-OV-3
  GI50: 32.1 µM (inactive)
SN12C
  GI50: 32.9 µM (inactive)
SNB-19
  GI50: 24.9 µM (inactive)
SNB-75
  GI50: 30.5 µM (inactive)
SR
  GI50: 21.3 µM (inactive)
SW-620
  GI50: 40.2 µM (inactive)
T47D
  GI50: 33.8 µM (inactive)
TK-10
  GI50: 25.4 µM (inactive)
U-251
  GI50: 23.2 µM (inactive)
UACC-257
  GI50: 26.8 µM (inactive)
UACC-62
  GI50: > 100 µM (inactive)

## CCOC(=O)c1sc2c(c1OC(=O)c1ccc(OC)cc1)c(=O)n(-c1ccccc1)c(=S)n2-c1ccccc1
786-0
  GI50: 35.5 µM (inactive)
A498
  GI50: 17.1 µM (inactive)
A549
  GI50: > 100 µM (inactive)
ACHN
  GI50: > 100 µM (inactive)
CAKI-1
  GI50: > 100 µM (inactive)
CCRF-CEM
  GI50: > 100 µM (inactive)
COLO 205
  GI50: > 100 µM (inactive)
DU-145
  GI50: > 100 µM (inactive)
EKVX
  GI50: > 100 µM (inactive)
HCC 2998
  GI50: 16.3 µM (inactive)
HCT-116
  GI50: 20.7 µM (inactive)
HCT-15
  GI50: > 100 µM
HL-60
  GI50: > 100 µM (inactive)
HOP-62
  GI50: 54 µM (inactive)
HOP-92
  GI50: 20.9 µM (inactive)
HT-29
  GI50: > 100 µM (inactive)
Hs-578T
  GI50: > 100 µM (inactive)
IGROV-1
  GI50: > 100 µM (inactive)
K562
  GI50: > 100 µM (inactive)
KM12
  GI50: > 100 µM (inactive)
LOX IMVI
  GI50: > 100 µM (inactive)
M14
  GI50: > 100 µM (inactive)
MCF7
  GI50: > 100 µM (inactive)
MDA-MB-231
  GI50: 16.4 µM (inactive)
MDA-MB-435
  GI50: > 100 µM (inactive)
MDA-N
  GI50: > 100 µM (inactive)
MOLT-4
  GI50: > 100 µM (inactive)
Malme-3M
  GI50: 61.7 µM (inactive)
NCI-H226
  GI50: 24.9 µM (inactive)
NCI-H23
  GI50: > 100 µM (inactive)
NCI-H460
  GI50: 94.6 µM (inactive)
NCI-H522
  GI50: 1.41 µM (inactive)
NCI/ADR-RES
  GI50: 21.8 µM (inactive)
OVCAR-3
  GI50: > 100 µM (inactive)
OVCAR-4
  GI50: 10.2 µM (inactive)
OVCAR-5
  GI50: > 100 µM (inactive)
OVCAR-8
  GI50: > 100 µM (inactive)
PC-3
  GI50: > 100 µM (inactive)
RPMI-8226
  GI50: > 100 µM (inactive)
RXF 393
  GI50: > 100 µM (inactive)
SF-268
  GI50: > 100 µM (inactive)
SF-295
  GI50: > 100 µM (inactive)
SF-539
  GI50: 77.8 µM (inactive)
SK-MEL-28
  GI50: > 100 µM (inactive)
SK-MEL-5
  GI50: 27.6 µM (inactive)
SK-OV-3
  GI50: > 100 µM (inactive)
SN12C
  GI50: 75.7 µM (inactive)
SNB-19
  GI50: > 100 µM (inactive)
SNB-75
  GI50: > 100 µM (inactive)
SR
  GI50: 36.5 µM (inactive)
SW-620
  GI50: > 100 µM (inactive)
T47D
  GI50: > 100 µM (inactive)
TK-10
  GI50: > 100 µM (inactive)
U-251
  GI50: > 100 µM (inactive)
UACC-257
  GI50: > 100 µM (inactive)
UACC-62
  GI50: > 100 µM (inactive)

## OCC1COc2cc(Cl)c(Cl)cc2O1 (stereo not drawn)
A498
  GI50: > 10 µM (inactive)
A549
  GI50: > 10 µM (inactive)
ACHN
  GI50: > 10 µM (inactive)
CAKI-1
  GI50: > 10 µM (inactive)
CCRF-CEM
  GI50: > 10 µM (inactive)
COLO 205
  GI50: > 10 µM (inactive)
DU-145
  GI50: > 10 µM (inactive)
EKVX
  GI50: > 10 µM (inactive)
HCC 2998
  GI50: > 10 µM (inactive)
HCT-116
  GI50: > 10 µM (inactive)
HCT-15
  GI50: > 10 µM
HL-60
  GI50: > 10 µM (inactive)
HOP-62
  GI50: > 10 µM (inactive)
HT-29
  GI50: > 10 µM (inactive)
Hs-578T
  GI50: > 10 µM (inactive)
IGROV-1
  GI50: > 10 µM (inactive)
K562
  GI50: > 10 µM (inactive)
KM12
  GI50: > 10 µM (inactive)
LOX IMVI
  GI50: > 10 µM (inactive)
M14
  GI50: > 10 µM (inactive)
MCF7
  GI50: > 10 µM (inactive)
MDA-MB-231
  GI50: > 10 µM (inactive)
MDA-MB-435
  GI50: > 10 µM (inactive)
MDA-N
  GI50: > 10 µM (inactive)
MOLT-4
  GI50: > 10 µM (inactive)
Malme-3M
  GI50: > 10 µM (inactive)
NCI-H226
  GI50: 6.3 µM (inactive)
NCI-H23
  GI50: > 10 µM (inactive)
NCI-H460
  GI50: > 10 µM (inactive)
NCI-H522
  GI50: 1.42 µM (inactive)
NCI/ADR-RES
  GI50: > 10 µM (inactive)
OVCAR-3
  GI50: > 10 µM (inactive)
OVCAR-4
  GI50: > 10 µM (inactive)
OVCAR-5
  GI50: > 10 µM (inactive)
OVCAR-8
  GI50: > 10 µM (inactive)
PC-3
  GI50: > 10 µM (inactive)
RPMI-8226
  GI50: > 10 µM (inactive)
RXF 393
  GI50: > 10 µM (inactive)
SF-268
  GI50: > 10 µM (inactive)
SF-295
  GI50: > 10 µM (inactive)
SF-539
  GI50: > 10 µM (inactive)
SK-MEL-28
  GI50: > 10 µM (inactive)
SK-MEL-2
  GI50: > 10 µM (inactive)
SK-MEL-5
  GI50: > 10 µM (inactive)
SK-OV-3
  GI50: > 10 µM (inactive)
SN12C
  GI50: > 10 µM (inactive)
SNB-19
  GI50: > 10 µM (inactive)
SNB-75
  GI50: > 10 µM (inactive)
SR
  GI50: > 10 µM (inactive)
SW-620
  GI50: > 10 µM (inactive)
T47D
  GI50: > 10 µM (inactive)
TK-10
  GI50: > 10 µM (inactive)
U-251
  GI50: > 10 µM (inactive)
UACC-62
  GI50: > 10 µM (inactive)
UO-31
  GI50: > 10 µM (inactive)
